Experimental data published in PubChem BioAssay AID1963967 (Molecular Pharmacology Branch, DTP, NCI, 2024).
“And” between values parts separate entries of the source, which are not always exact repeats. Identical values can stand only once.

Test system: 855422-203-R-J1-PDC spheroids with HUVEC/MSC, viability
Assay: Anticancer human tumor 855422-203-R-J1-PDC patient-derived bladder carcinoma cell line growth inhibition [PI3K]
Conditions: for viability, T/C: stronger effect = lower value; active = viability on the fitted dose curve at most 10% of control; inactive = the rest
Method in brief: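 Targeted small molecules plus PI3K inhibitors, half-log dose series from Cmax (default top 10 microM), were applied to heterotypic spheroids of cancer cells with HUVEC and MSCs. Viability indicated growth inhibition.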

[1] = curve of first compound, second compound 0.00316 µM
[2] = curve of first compound, second compound 0.01 µM
[3] = curve of first compound, second compound 0.0316 µM
[4] = curve of first compound, second compound 0.1 µM
[5] = curve of first compound, second compound 0.316 µM
[6] = curve of first compound, second compound 1 µM
[7] = second compound 0.00316 µM, first compound 0.00316 µM
[8] = second compound 0.00316 µM, first compound 0.01 µM
[9] = second compound 0.00316 µM, first compound 0.0316 µM
[10] = second compound 0.00316 µM, first compound 0.1 µM
[11] = second compound 0.01 µM, first compound 0.00316 µM
[12] = second compound 0.01 µM, first compound 0.01 µM
[13] = second compound 0.01 µM, first compound 0.0316 µM
[14] = second compound 0.01 µM, first compound 0.1 µM
[15] = second compound 0.0316 µM, first compound 0.00316 µM
[16] = second compound 0.0316 µM, first compound 0.01 µM
[17] = second compound 0.0316 µM, first compound 0.0316 µM
[18] = second compound 0.0316 µM, first compound 0.1 µM
[19] = second compound 0.0316 µM, first compound 0.316 µM
[20] = second compound 0.0316 µM, first compound 1 µM
[21] = second compound 0.1 µM, first compound 0.00316 µM
[22] = second compound 0.1 µM, first compound 0.01 µM
[23] = second compound 0.1 µM, first compound 0.0316 µM
[24] = second compound 0.1 µM, first compound 0.1 µM
[25] = second compound 0.1 µM, first compound 0.316 µM
[26] = second compound 0.1 µM, first compound 1 µM
[27] = second compound 0.316 µM, first compound 0.00316 µM
[28] = second compound 0.316 µM, first compound 0.01 µM
[29] = second compound 0.316 µM, first compound 0.0316 µM
[30] = second compound 0.316 µM, first compound 0.1 µM
[31] = second compound 0.316 µM, first compound 0.316 µM
[32] = second compound 0.316 µM, first compound 1 µM
[33] = second compound 1 µM, first compound 0.00316 µM
[34] = second compound 1 µM, first compound 0.01 µM
[35] = second compound 1 µM, first compound 0.0316 µM
[36] = second compound 1 µM, first compound 0.1 µM
[37] = second compound 1 µM, first compound 0.316 µM
[38] = second compound 1 µM, first compound 1 µM
[39] = curve of first compound, second compound 3.16 µM
[40] = curve of first compound, second compound 10 µM
[41] = second compound 0.0316 µM, first compound 3.16 µM
[42] = second compound 0.0316 µM, first compound 10 µM
[43] = second compound 0.1 µM, first compound 3.16 µM
[44] = second compound 0.1 µM, first compound 10 µM
[45] = second compound 0.316 µM, first compound 3.16 µM
[46] = second compound 0.316 µM, first compound 10 µM
[47] = second compound 1 µM, first compound 3.16 µM
[48] = second compound 1 µM, first compound 10 µM
[49] = second compound 3.16 µM, first compound 0.0316 µM
[50] = second compound 3.16 µM, first compound 0.1 µM
[51] = second compound 3.16 µM, first compound 0.316 µM
[52] = second compound 3.16 µM, first compound 1 µM
[53] = second compound 3.16 µM, first compound 3.16 µM
[54] = second compound 3.16 µM, first compound 10 µM
[55] = second compound 10 µM, first compound 0.0316 µM
[56] = second compound 10 µM, first compound 0.1 µM
[57] = second compound 10 µM, first compound 0.316 µM
[58] = second compound 10 µM, first compound 1 µM
[59] = second compound 10 µM, first compound 3.16 µM
[60] = second compound 10 µM, first compound 10 µM
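Also: agents incubated with spheroids for one week before read-out.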
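For viability, T/C in this document: 100% = DMSO vehicle-treated control wells.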

CC(C)NCC(C(=O)N1CCN(c2ncnc3c2C(C)CC3O)CC1)c1ccc(Cl)cc1 (configuration not stated)
inactive: viability, T/C (compound 0.0316 µM) 93.1% [middle of 4 runs] | viability, T/C (compound 0.1 µM) 82.9% [middle of 4 runs] | viability, T/C (compound 0.316 µM) 78.5% [middle of 4 runs] | viability, T/C (compound 1 µM) 51.7% [middle of 4 runs] | viability, T/C (compound 3.16 µM) 36.8% [middle of 4 runs] | viability, T/C (compound 10 µM) 19.9% (2×) and 18.6% and 19.6%
1.25 µM [middle of 4 runs]: IC50 (curve of compound)

CCN1CCN(Cc2ccc(Nc3ncc(F)c(-c4cc(F)c5nc(C)n(C(C)C)c5c4)n3)nc2)CC1 + COc1c(OCCCN2CCOCC2)ccc2c3n(c(=NC(=O)c4cnc(N)nc4)nc12)CCN3
active: viability, T/C [28] 9.97% | viability, T/C [29] 8.87% | viability, T/C [30] 7.84% | viability, T/C [31] 8.06% | viability, T/C [32] 8.7% | viability, T/C [33] 4.05% | viability, T/C [34] 5.98% | viability, T/C [35] 4.02% | viability, T/C [36] 4.36% | viability, T/C [37] 4.5% | viability, T/C [38] 5.49%
409 nM: IC50 [2]
inactive: viability, T/C [7] 95.2% | viability, T/C [8] 77.9% | viability, T/C [9] 103% | viability, T/C [10] 82.6% | viability, T/C (second compound 0.00316 µM, first compound 0.316 µM) 77.6% | viability, T/C (second compound 0.00316 µM, first compound 1 µM) 60.5% | viability, T/C [11] 87.8% | viability, T/C [12] 89.9% | viability, T/C [13] 85.2% | viability, T/C [14] 71.1% | viability, T/C (second compound 0.01 µM, first compound 0.316 µM) 52.9% | viability, T/C (second compound 0.01 µM, first compound 1 µM) 41.6% | viability, T/C [15] 64.8% | viability, T/C [16] 67.6% | viability, T/C [17] 52.7% | viability, T/C [18] 45.7% | viability, T/C [19] 26.7% | viability, T/C [20] 20.6% | viability, T/C [21] 28.9% | viability, T/C [22] 29.3% | viability, T/C [23] 22.7% | viability, T/C [24] 15.6% | viability, T/C [25] 12.2% | viability, T/C [26] 13.9% | viability, T/C [27] 11.5%
55 nM: IC50 [3]
> 1000 nM: IC50 [1]
< 3.16 nM: IC50 [4] | IC50 [5] | IC50 [6]

CC(C)n1nc(-c2ccc3oc(N)nc3c2)c2c(N)ncnc21 + COc1c(OCCCN2CCOCC2)ccc2c3n(c(=NC(=O)c4cnc(N)nc4)nc12)CCN3
inactive: viability, T/C (second compound 0.00316 µM, first compound 0.000316 µM) 106% | viability, T/C (second compound 0.00316 µM, first compound 0.001 µM) 88.3% | viability, T/C [7] 94.4% | viability, T/C [8] 81.5% | viability, T/C [9] 72.6% | viability, T/C [10] 14.6% | viability, T/C (second compound 0.01 µM, first compound 0.000316 µM) 89.6% | viability, T/C (second compound 0.01 µM, first compound 0.001 µM) 87.7% | viability, T/C [11] 90.3% | viability, T/C [12] 86.5% | viability, T/C [13] 49.7% | viability, T/C [14] 10.4% | viability, T/C (second compound 0.0316 µM, first compound 0.000316 µM) 72.1% | viability, T/C (second compound 0.0316 µM, first compound 0.001 µM) 68.8% | viability, T/C [15] 56.8% | viability, T/C [16] 53% | viability, T/C [17] 34.5% | viability, T/C (second compound 0.1 µM, first compound 0.000316 µM) 33.4% | viability, T/C (second compound 0.1 µM, first compound 0.001 µM) 30.8% | viability, T/C [21] 33.1% | viability, T/C [22] 29.3% | viability, T/C [23] 19.1% | viability, T/C (second compound 0.316 µM, first compound 0.000316 µM) 11.2% | viability, T/C (second compound 0.316 µM, first compound 0.001 µM) 10.2%
31.3 nM: IC50 [2]
active: viability, T/C [18] 7.16% | viability, T/C [24] 4.35% | viability, T/C [27] 9.76% | viability, T/C [28] 9.27% | viability, T/C [29] 5.64% | viability, T/C [30] 2.5% | viability, T/C (second compound 1 µM, first compound 0.000316 µM) 5.23% | viability, T/C (second compound 1 µM, first compound 0.001 µM) 5.41% | viability, T/C [33] 4.21% | viability, T/C [34] 4.46% | viability, T/C [35] 3.47% | viability, T/C [36] 1.3%
47 nM: IC50 [1]
< 0.316 nM: IC50 [4] | IC50 [5] | IC50 [6]
10.6 nM: IC50 [3]

CNC(=O)c1ccc(N2C(=S)N(c3ccc(C#N)c(C(F)(F)F)c3)C(=O)C2(C)C)cc1F
> 10000 nM: IC50 (curve of compound)
inactive: viability, T/C (compound 0.0316 µM) 110% [middle of 4 runs] | viability, T/C (compound 0.1 µM) 99.4% [middle of 4 runs] | viability, T/C (compound 0.316 µM) 106% [middle of 4 runs] | viability, T/C (compound 1 µM) 84.8% [middle of 4 runs] | viability, T/C (compound 3.16 µM) 79.4% [middle of 4 runs] | viability, T/C (compound 10 µM) 66.9% [middle of 4 runs]

CC1(C)CCC(CN2CCN(c3ccc(C(=O)NS(=O)(=O)c4ccc(NCC5CCOCC5)c([N+](=O)[O-])c4)c(Oc4cnc5[nH]ccc5c4)c3)CC2)=C(c2ccc(Cl)cc2)C1 + Cc1nc(NC(=O)N2CCCC2C(N)=O)sc1-c1ccnc(C(C)(C)C(F)(F)F)c1
inactive: viability, T/C [17] 105% | viability, T/C [18] 89.9% | viability, T/C [19] 112% | viability, T/C [20] 100% | viability, T/C [41] 72.8% | viability, T/C [23] 99.8% | viability, T/C [24] 87.4% | viability, T/C [25] 101% | viability, T/C [26] 102% | viability, T/C [43] 80.6% | viability, T/C [29] 89.8% | viability, T/C [30] 91.8% | viability, T/C [31] 95.3% | viability, T/C [32] 92.1% | viability, T/C [45] 88.6% | viability, T/C [35] 76.8% | viability, T/C [36] 77% | viability, T/C [37] 69.5% | viability, T/C [38] 81% | viability, T/C [47] 73.3% | viability, T/C [49] 47.7% | viability, T/C [50] 45.5% | viability, T/C [51] 42.7% | viability, T/C [52] 49% | viability, T/C [53] 47% | viability, T/C [55] 25.8% | viability, T/C [56] 23.5% | viability, T/C [57] 25.7% | viability, T/C [58] 29.4% | viability, T/C [59] 24.7% | viability, T/C [60] 0.6%
< 31.6 nM: IC50 [39] | IC50 [40]
5260 nM: IC50 [5]
4580 nM: IC50 [6]
4940 nM: IC50 [4]
active: viability, T/C [42] 1.55% | viability, T/C [44] 1.52% | viability, T/C [46] 1.39% | viability, T/C [48] 0.91% | viability, T/C [54] 0.59%
4570 nM: IC50 [3]

CNC(=O)c1ccc(N2C(=S)N(c3ccc(C#N)c(C(F)(F)F)c3)C(=O)C2(C)C)cc1F + Cc1nc(NC(=O)N2CCCC2C(N)=O)sc1-c1ccnc(C(C)(C)C(F)(F)F)c1
> 10000 nM: IC50 [3] | IC50 [4] | IC50 [5] | IC50 [6]
< 31.6 nM: IC50 [40]
inactive: viability, T/C [17] 109% | viability, T/C [18] 95.3% | viability, T/C [19] 99.1% | viability, T/C [20] 87.4% | viability, T/C [41] 80.7% | viability, T/C [42] 74.5% | viability, T/C [23] 99.7% | viability, T/C [24] 97.8% | viability, T/C [25] 96.7% | viability, T/C [26] 84.8% | viability, T/C [43] 88.1% | viability, T/C [44] 79% | viability, T/C [29] 98.1% | viability, T/C [30] 83.3% | viability, T/C [31] 96.7% | viability, T/C [32] 87.6% | viability, T/C [45] 86.8% | viability, T/C [46] 77.4% | viability, T/C [35] 72.5% | viability, T/C [36] 75.7% | viability, T/C [37] 73.7% | viability, T/C [38] 76.8% | viability, T/C [47] 82.5% | viability, T/C [48] 61.8% | viability, T/C [49] 47.4% | viability, T/C [50] 49.6% | viability, T/C [51] 44.6% | viability, T/C [52] 51.5% | viability, T/C [53] 54.1% | viability, T/C [54] 36.7% | viability, T/C [55] 24.1% | viability, T/C [56] 27.6% | viability, T/C [57] 24.7% | viability, T/C [58] 31.2% | viability, T/C [59] 29.4% | viability, T/C [60] 16.8%
31.6 nM: IC50 [39]
